Source: patent publication US20260274832A1, “COMPOUNDS AND THEIR USE IN TREATING CANCER” (ASTRAZENECA AB, priority 2023, published 2026)

Legend:
[1] = biological target: T1, AR (AR-full length) in LNCaP cells (Homo sapiens, UniProt P10275, T878A); assay: LNCaP Androgen Receptor Imaging Assay (immunofluorescence of endogenous nuclear AR); type: cell-based; conditions: 24 h incubation; for DC50: concentration giving 50% of maximum degradation of AR per curve fit, single experiment or average of two or more; for Dmax: LNCaP, maximum degradation observed, normalized as % of positive control (prior art AR PROTAC at 3 μM)
T1 construct: the prostate cancer cell line LNCaP (expressing AR-full length); endogenous in cells; host or cells: LNCaP
Procedure, shortened: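 Endogenous nuclear AR level was imaged by immunofluorescence after 24 h compound exposure (12-point dose response, 0.3% DMSO, 37° C./5% CO2) in LNCaP cells. Data were expressed as % of a 3 μM prior-art AR PROTAC control and fitted (bell fit where a hook appeared) to give DC50 and maximum degradation Dmax.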

[2] = biological target: T2, AR (L702H) in LNCaP cells (Homo sapiens, UniProt P10275, L702H/T878A); assay: LNCaP Androgen Receptor L702H Imaging Assay (LNCaP cells engineered by CRISPR/Cas9); type: cell-based; conditions: LNCaP cells with AR L702H mutation, 24 h incubation; for DC50: concentration giving 50% of maximum degradation of AR (L702H) per curve fit; for Dmax: LNCaP, maximum degradation observed, normalized as % of positive control
T2 construct: engineered to introduce the mutation L702H into the AR gene using CRISPR/Cas9; endogenous in cells; host or cells: LNCaP cells edited by CRISPR/Cas9 at the AR gene
Procedure, shortened: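 AR (L702H) degradation, expressed as DC50 and Dmax from curve fits normalized to a positive degrader control, was measured by high-content imaging of anti-AR immunofluorescence. The engineered LNCaP line was dosed over 12 concentrations for 24 h, 0.3% DMSO final, before PFA fixation.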

T1 sequence (P10275 whole entry T878A): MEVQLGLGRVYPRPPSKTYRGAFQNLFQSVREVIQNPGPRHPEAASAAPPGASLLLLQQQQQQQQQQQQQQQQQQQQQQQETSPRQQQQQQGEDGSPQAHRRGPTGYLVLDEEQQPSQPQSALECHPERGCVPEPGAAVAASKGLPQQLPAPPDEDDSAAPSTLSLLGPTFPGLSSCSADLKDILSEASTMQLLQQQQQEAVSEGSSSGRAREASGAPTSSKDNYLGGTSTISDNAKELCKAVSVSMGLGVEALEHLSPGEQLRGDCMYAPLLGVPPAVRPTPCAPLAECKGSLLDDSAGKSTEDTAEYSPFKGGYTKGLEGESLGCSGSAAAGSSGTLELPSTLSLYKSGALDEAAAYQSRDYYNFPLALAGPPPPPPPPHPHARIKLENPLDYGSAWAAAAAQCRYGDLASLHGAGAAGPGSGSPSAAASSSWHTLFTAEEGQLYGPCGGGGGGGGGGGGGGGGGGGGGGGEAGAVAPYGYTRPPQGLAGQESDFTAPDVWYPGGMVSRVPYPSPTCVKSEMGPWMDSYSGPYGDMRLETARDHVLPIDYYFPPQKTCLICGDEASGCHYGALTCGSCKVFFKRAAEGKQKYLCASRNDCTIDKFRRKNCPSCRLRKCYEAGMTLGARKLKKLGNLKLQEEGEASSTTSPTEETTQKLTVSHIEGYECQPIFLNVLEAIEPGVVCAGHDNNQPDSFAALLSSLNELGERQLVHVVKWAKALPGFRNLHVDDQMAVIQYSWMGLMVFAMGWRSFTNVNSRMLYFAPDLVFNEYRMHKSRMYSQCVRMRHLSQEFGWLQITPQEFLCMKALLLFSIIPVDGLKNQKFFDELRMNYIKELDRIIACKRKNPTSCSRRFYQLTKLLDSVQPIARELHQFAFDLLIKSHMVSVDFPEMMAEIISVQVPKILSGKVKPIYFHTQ
T1 sequence (Q96SW2 whole entry partner): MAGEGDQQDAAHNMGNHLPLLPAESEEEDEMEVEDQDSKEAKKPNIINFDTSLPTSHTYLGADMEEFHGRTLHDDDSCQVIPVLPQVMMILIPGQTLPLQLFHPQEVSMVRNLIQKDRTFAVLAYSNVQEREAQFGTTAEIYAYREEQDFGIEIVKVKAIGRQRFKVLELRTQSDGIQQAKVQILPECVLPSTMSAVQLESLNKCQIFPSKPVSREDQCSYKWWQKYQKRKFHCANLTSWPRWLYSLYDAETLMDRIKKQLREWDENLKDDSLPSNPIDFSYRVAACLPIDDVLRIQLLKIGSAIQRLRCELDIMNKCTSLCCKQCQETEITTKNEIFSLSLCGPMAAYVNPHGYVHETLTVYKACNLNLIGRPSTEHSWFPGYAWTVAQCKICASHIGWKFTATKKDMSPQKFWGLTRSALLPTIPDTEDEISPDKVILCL
T2 sequence (P10275 whole entry L702H/T878A): as the sequence (P10275 whole entry T878A) above, with L702H counted along it
T2 sequence (Q96SW2 whole entry partner): as the sequence (Q96SW2 whole entry partner) above

Row | SMILES | DC50 [1] | Dmax [1] | DC50 [2] | Dmax [2]
1 | N#Cc1c[nH]c2c(N3CCC(c4cnc(N5CCC(CN6CCN(c7ccc8c(c7)CN(C7CCC(=O)NC7=O)C8=O)CC6)CC5)cn4)CC3)ccc(Cl)c12 (centres unmarked) [Example 68, 4-Chloro-7-(4-{5-[4-({4-[2-(2,6-dioxopiperidin-3-yl)-1-oxo-2,3-dihydro-1H-isoindol-5-yl]piperazin-1-yl}methyl)piperidin-1-yl]pyrazin-2-yl}piperidin-1-yl)-1H-indole-3-carbonitrile] | 6 nM | 97% | 21 nM | 84%
2 | Cc1ccc(N2CCC(c3ccc(N4CCC(CN5CCN(Cc6cccc7c6n(C)c(=O)n7C6CCC(=O)NC6=O)CC5)CC4)cc3)CC2)c2[nH]cc(C#N)c12 (centres unmarked) [Example 69, 7-[4-(4-{4-[(4-{[1-(2,6-Dioxopiperidin-3-yl)-3-methyl-2-oxo-2,3-dihydro-1H-benzimidazol-4-yl]methyl}piperazin-1-yl)methyl]piperidin-1-yl}phenyl)piperidin-1-yl]-4-methyl-1H-indole-3-carbonitrile] | 9 nM | 92% | 5 nM | 94%
3 | Cn1c(=O)n(C2CCC(=O)NC2=O)c2cccc(CN3CCN(CC4CCN(c5ccc(C6CCN(c7ccc(Cl)c8c(C#N)c[nH]c78)CC6)cc5)CC4)CC3)c21 (centres unmarked) [Example 70, 4-Chloro-7-[4-(4-{4-[(4-{[1-(2,6-dioxopiperidin-3-yl)-3-methyl-2-oxo-2,3-dihydro-1H-benzimidazol-4-yl]methyl}piperazin-1-yl)methyl]piperidin-1-yl}phenyl)piperidin-1-yl]-1H-indole-3-carbonitrile] | 9 nM | 97% | 9 nM | 101%
4 | Cn1c(=O)n(C2CCC(=O)NC2=O)c2cccc(CN3CCN(CC4CCN(c5ccc(C6CCN(c7ccc(F)c8c(C#N)c[nH]c78)CC6)cc5)CC4)CC3)c21 (centres unmarked) [Example 71, 7-[4-(4-{4-[(4-{[1-(2,6-Dioxopiperidin-3-yl)-3-methyl-2-oxo-2,3-dihydro-1H-benzimidazol-4-yl]methyl}piperazin-1-yl)methyl]piperidin-1-yl}phenyl)piperidin-1-yl]-4-fluoro-1H-indole-3-carbonitrile] | 7 nM | 84% | 7 nM | 94%
5 | Cn1c(=O)n(C2CCC(=O)NC2=O)c2cccc(N3CCN(CC4CCN(c5ccc(C6CCN(c7ccc(Cl)c8c(C#N)c[nH]c78)CC6)cc5)CC4)CC3)c21 (centres unmarked) [Example 72, 4-Chloro-7-(4-{4-[4-({4-[1-(2,6-dioxopiperidin-3-yl)-3-methyl-2-oxo-2,3-dihydro-1H-benzimidazol-4-yl]piperazin-1-yl}methyl)piperidin-1-yl]phenyl}piperidin-1-yl)-1H-indole-3-carbonitrile] | 14 nM | 91% | 21 nM | 92%
6 | Cn1c(=O)n(C2CCC(=O)NC2=O)c2cccc(CN3CCN(CC4CCN(c5ccc([C@@H]6CCCN(c7ccc(Cl)c8c(C#N)c[nH]c78)C6)cc5)CC4)CC3)c21 (stereo partly drawn) [Example 73, 4-Chloro-7-[(3S)-3-(4-{4-[(4-{[1-(2,6-dioxopiperidin-3-yl)-3-methyl-2-oxo-2,3-dihydro-1H-benzimidazol-4-yl]methyl}piperazin-1-yl)methyl]piperidin-1-yl}phenyl)piperidin-1-yl]-1H-indole-3-carbonitrile] | 7 nM | 93% | 13 nM | 90%
7 | Cn1c(=O)n(C2CCC(=O)NC2=O)c2cccc(CN3CCN(CC4CCN(c5ccc([C@@H]6CCCN(c7ccc(F)c8c(C#N)c[nH]c78)C6)cc5)CC4)CC3)c21 (some centres unmarked) [Example 74] | 8 nM | 93% | 21 nM | 70%
8 | N#Cc1c[nH]c2c(N3CCC(c4ccc(N5CCC(CN6Cc7cc8c(cc7C6)C(=O)N(C6CCC(=O)NC6=O)C8=O)CC5)cc4)CC3)ccc(Cl)c12 (centres unmarked) [Example 75, 4-Chloro-7-{4-[4-(4-{[6-(2,6-dioxopiperidin-3-yl)-5,7-dioxo-3,5,6,7-tetrahydropyrrolo[3,4-f]isoindol-2(1H)-yl]methyl}piperidin-1-yl)phenyl]piperidin-1-yl}-1H-indole-3-carbonitrile] | 62 nM | 68% | 68 nM | 83%
9 | N#Cc1n[nH]c2c(N3CCC[C@@H](c4ccc(N5CCC(CN6Cc7cc8c(cc7C6)C(=O)N(C6CCC(=O)NC6=O)C8=O)CC5)cc4)C3)ccc(Cl)c12 (stereo partly drawn) [Example 76, 4-Chloro-7-{(3S)-3-[4-(4-{[6-(2,6-dioxopiperidin-3-yl)-5,7-dioxo-3,5,6,7-tetrahydropyrrolo[3,4-f]isoindol-2(1H)-yl]methyl}piperidin-1-yl)phenyl]piperidin-1-yl}-1H-indazole-3-carbonitrile] | 18 nM | 92% | 38 nM | 104%
10 | N#Cc1c[nH]c2c(N3CCC[C@@H](c4ccc(N5CCC(CN6Cc7cc8c(cc7C6)C(=O)N(C6CCC(=O)NC6=O)C8=O)CC5)cc4)C3)ccc(Cl)c12 (stereo partly drawn) [Example 77, 4-Chloro-7-{(3S)-3-[4-(4-{[6-(2,6-dioxopiperidin-3-yl)-5,7-dioxo-3,5,6,7-tetrahydropyrrolo[3,4-f]isoindol-2(1H)-yl]methyl}piperidin-1-yl)phenyl]piperidin-1-yl}-1H-indole-3-carbonitrile] | 14 nM | 79% | 67 nM | 69%
11 | Cn1c(C2CCN(CC3CCN(c4ccc(C5CCN(c6ccc(Cl)c7c(C#N)c[nH]c67)CC5)cc4)CC3)CC2)cc2ccc(N3CCC(=O)NC3=O)cc21 [Example 84, 4-Chloro-7-(4-{4-[4-({4-[6-(2,4-dioxo-1,3-diazinan-1-yl)-1-methyl-1H-indol-2-yl]piperidin-1-yl}methyl)piperidin-1-yl]phenyl}piperidin-1-yl)-1H-indole-3-carbonitrile] | 22 nM | 99% | 12 nM | 103%
12 | N#Cc1c[nH]c2c(N3CCC(c4ccc(C(=O)N5CCC(CN6CCN(c7ccc8c(c7)CN(C7CCC(=O)NC7=O)C8=O)CC6)CC5)cc4)CC3)ccc(Cl)c12 (centres unmarked) [Example 85, 4-Chloro-7-(4-{4-[4-({4-[2-(2,6-dioxopiperidin-3-yl)-1-oxo-2,3-dihydro-1H-isoindol-5-yl]piperazin-1-yl}methyl)piperidine-1-carbonyl]phenyl}piperidin-1-yl)-1H-indole-3-carbonitrile] | 4 nM | 98% | 17 nM | 83%
13 | COc1nc(N2CCN(C3CCN(c4ccc(C5CCN(c6ccc(Cl)c7c(C#N)c[nH]c67)CC5)cc4)CC3)CC2)cc2c1C(=O)N(C1CCC(=O)NC1=O)C2 (centres unmarked) [Example 86, 4-Chloro-7-{4-[4-(4-{4-[2-(2,6-dioxopiperidin-3-yl)-4-methoxy-3-oxo-2,3-dihydro-1H-pyrrolo[3,4-c]pyridin-6-yl]piperazin-1-yl}piperidin-1-yl)phenyl]piperidin-1-yl}-1H-indole-3-carbonitrile] | 15 nM | 94% | 14 nM | 99%
14 | COc1nc(N2CCN(CCC3CCN(c4ccc(C5CCN(c6ccc(Cl)c7c(C#N)c[nH]c67)CC5)cc4)CC3)CC2)cc2c1C(=O)N(C1CCC(=O)NC1=O)C2 (centres unmarked) [Example 87, 4-Chloro-7-(4-{4-[4-(2-{4-[2-(2,6-dioxopiperidin-3-yl)-4-methoxy-3-oxo-2,3-dihydro-1H-pyrrolo[3,4-c]pyridin-6-yl]piperazin-1-yl}ethyl)piperidin-1-yl]phenyl}piperidin-1-yl)-1H-indole-3-carbonitrile] | 5 nM | 95% | 8 nM | 94%
15 | COc1nc(N2CCN(CCCC3CCN(c4ccc(C5CCN(c6ccc(Cl)c7c(C#N)c[nH]c67)CC5)cc4)CC3)CC2)cc2c1C(=O)N(C1CCC(=O)NC1=O)C2 (centres unmarked) [Example 88, 4-Chloro-7-(4-{4-[4-(3-{4-[2-(2,6-dioxopiperidin-3-yl)-4-methoxy-3-oxo-2,3-dihydro-1H-pyrrolo[3,4-c]pyridin-6-yl]piperazin-1-yl}propyl)piperidin-1-yl]phenyl}piperidin-1-yl)-1H-indole-3-carbonitrile] | 13 nM | 96% | 21 nM | 99%
16 | N#Cc1c[nH]c2c(N3CCC(c4ccc(N5CCC(CN6CCC(n7ccc8cc(N9CCC(=O)NC9=O)ccc87)CC6)CC5)cc4)CC3)ccc(F)c12 [Example 89, 7-(4-{4-[4-({4-[5-(2,4-Dioxo-1,3-diazinan-1-yl)-1H-indol-1-yl]piperidin-1-yl}methyl)piperidin-1-yl]phenyl}piperidin-1-yl)-4-fluoro-1H-indole-3-carbonitrile] | 421 nM | 70% | 56 nM | 97%
17 | N#Cc1c[nH]c2c(N3CCC(c4ccc(N5CCC(CN6CCC(n7ccc8cc(N9CCC(=O)NC9=O)ccc87)CC6)CC5)cc4)CC3)ccc(Cl)c12 [Example 90, 4-Chloro-7-(4-{4-[4-({4-[5-(2,4-dioxo-1,3-diazinan-1-yl)-1H-indol-1-yl]piperidin-1-yl}methyl)piperidin-1-yl]phenyl}piperidin-1-yl)-1H-indole-3-carbonitrile] | 281 nM | 87% | 164 nM | 101%
